Measured values reported in article PMC11370232, “Repurposing of a library for high-content screening of inhibitors against Echinococcus granulosus” (Parasites & Vectors, 2024).
In brackets after ≈: the same amount, converted by molar mass. Counter-ions that a name gives are not always drawn. Like-named read-outs stand apart in the source and are kept apart here.

Experiments:
[1] = Cytotoxicity in HepG2; conditions: human
[2] = test system: lab-cultured E. granulosus microcysts (< 1 mm); test: In vitro microcyst viability assay; assay type: cell-based, Echinococcus granulosus; conditions: 10 μM, 4 days
Experimental: The in vitro E. granulosus culture progression was divided into two stages: an early stage in which the PSC culture was established by digesting echinococcal cysts isolated from naturally infected sheep livers, followed by a late stage with differentiation into cysts. CSCs were cultured from PSCs according to our previously described method. Briefly, the PSCs were incubated at 37 °C in glass culture vessels in RPMI 1640 medium (Invitrogen, San Diego, CA) containing 20% (v/v) FCS (Invitrogen), 0.45% (w/v) yeast extract, 0.4% (w/v) glucose, 100 IU/mL penicillin, and 100 μg/mL streptomycin placed on a solid-phase base prepared by heating newborn calf serum at 75 °C for 45 min (Smyth, 1990). Approximately 100 PSCs/mL were cultured, and the liquid medium was replaced every 3 days. After 56 days of cultivation, about 10% of the PSCs had developed into cysts with a thin laminated layer. The external diameter of the cysts was 328.6 ± 48 μm, and they appeared to the naked eye as clear capsular cysts. The cysts were carefully aspirated from the culture flasks and separated from dead or undeveloped PSCs by Pasteur pipetting. CSCs included microcysts and cysts: the diameter of the microcysts ranged from 300 μm to 1 mm, and the diameters of the cysts were greater than 1 mm.
CSCs were cultured from PSCs utilizing the method described in a previous section. The in vitro cultured cysts (10 ± 5/well) or microcysts (10 ± 5/well) were seeded in 96-well plates before adding drugs. For the cyst/microcyst viability assay, cysts or microcysts were cultured in one well of a 96-well plate. After 1 day of culture, drugs were added to each well at a final concentration of 10 μM. For the cyst viability assay, the cyst survival rate was determined every 24 h after incubation with drugs, while for the microcyst viability assay, the survival rate of microcysts was determined at 4 days after drug incubation. The following equation was used for the death rate: death rate of CSCs (%) = 100 × (number of dead CSCs/number of total CSCs).

[3] = test system: lab-cultured E. granulosus cysts (> 1 mm); test: In vitro cyst viability assay; assay type: cell-based, Echinococcus granulosus; conditions: for inhibition at 10 µM: Echinococcus granulosus, 72 h, read-out: inhibitory rate against the cysts
[4] = test system: N. fowleri; design: method as in earlier work; conditions: cited from earlier work
[5] = in vitro; conditions: human
[6] = test system: alpha- and beta-coronaviruses; conditions: cited from earlier work
[7] = biological target: opioid receptor-like1 (ORL1) receptor; design: method as in SelleckChem library description; conditions: ref SelleckChem library description; cited from earlier work
[8] = test system: echinococcal cysts; design: method as in PMID 32279056; conditions: three-dose intraperitoneal regimen, 57 mg/kg once a day for 3 days; cited from earlier work
[9] = test system: 20S proteasome; design: method as in SelleckChem library description; conditions: ref SelleckChem library description; read-out: IC50, chymotrypsin-like activity of purified 20S proteasome; cited from earlier work
[10] = test system: E. multilocularis metacestodes; design: method as in PMID 32636148; conditions: screening cascade; cited from earlier work
[11] = test system: E. multilocularis metacestode burden; design: method as in PMID 32636148; conditions: oral treatment, mice infected intraperitoneally with metacestodes or orally with eggs, compared with albendazole; cited from earlier work
[12] = test system: E. granulosus cysts collected from mice infected with microcysts; test: Ex vivo cyst viability assay; assay type: cell-based, Echinococcus granulosus; conditions: for metacestodicidal effect on cysts ex vivo: 1 to 20 μM, 7 days
Experimental: BALB/c mice were inoculated with cultured microcysts following the methodology outlined in a previous study; 10 weeks post-infection, the mice were euthanized, and cysts were harvested from the peritoneal cavity. The cysts were categorized as size-small cysts, with a diameter less than 5 mm and without PSCs, or large cysts, with a diameter greater than 5 mm and with PSCs. Subsequently, the cysts were incubated in bottles with RPMI 1640 culture medium enriched with 10% FCS and antibiotics.
To determine the effect of omaveloxolone (HY-12212, MCE) and niclosamide (HY-B0497, MCE) on isolated cyst viability ex vivo, cysts collected from the peritoneal cavity of infected mice were incubated with different concentrations of drugs (1, 5, and 20 μM) for 7 days. The mortality rate of the cysts was recorded each day according to the following equation: death rate of cyst/microcyst (%) = [number of dead (cysts and microcysts)/number of total (cysts and microcysts)].

[13] = test system: E. multilocularis and E. granulosus s.s. PSCs, metacestode vesicles, and germinal layer cells; design: method as in PMID 37540716; conditions: cited from earlier work
[14] = test system: MALT1; design: method as in SelleckChem library description; conditions: ref SelleckChem library description; cited from earlier work
[15] = test system: EGFR; design: method as in SelleckChem library description; conditions: ref SelleckChem library description; cited from earlier work
[16] = test system: p97; design: method as in SelleckChem library description; conditions: ref SelleckChem library description; cited from earlier work
[17] = test system: ALK; design: method as in SelleckChem library description; conditions: ref SelleckChem library description, cited from earlier work
[18] = test system: PTEN; design: method as in SelleckChem library description; conditions: ref SelleckChem library description; cited from earlier work
[19] = test system: CE; design: method as in PMID 15708321, PMID 11776080; conditions: retrospective study; cited from earlier work
[20] = test system: HepG2; test: Cytotoxicity in HepG2; conditions: read-out: Cytotoxicity in HepG2, CC50; HepG2
[21] = test system: E. multilocularis metacestodes; design: method as in PMID 30396011; conditions: cited from earlier work
[22] = test system: Chk1; design: method as in SelleckChem library description; conditions: ref SelleckChem library description, cited from earlier work
[23] = test system: HepG2
[24] = test system: PI3Kα; design: method as in SelleckChem library description; conditions: ref SelleckChem library description; cited from earlier work
[25] = test system: PI3Kγ; design: method as in SelleckChem library description; conditions: ref SelleckChem library description; cited from earlier work
[26] = test system: PI3Kβ; design: method as in SelleckChem library description; conditions: ref SelleckChem library description; cited from earlier work
[27] = test system: Trypanosoma brucei brucei GUTat 3.1; design: method as in SelleckChem library description; conditions: ref SelleckChem library description; cited from earlier work
[28] = test system: Plasmodium falciparum K1a; design: method as in SelleckChem library description; conditions: ref SelleckChem library description; cited from earlier work

## CCCCc1oc2ccc(NS(C)(=O)=O)cc2c1C(=O)c1ccc(OCCCN(CCCC)CCCC)cc1 [Dronedarone HCl]
[1]; HepG2 cells
  CC50: 15.5 µM
[2]
  effect on microcyst viability: did not exert a significant inhibitory effect
[3]; 10 μM, day 3 post-treatment
  inhibition at 10 µM: 100%

## COC(=O)[C@]12CCC(C)(C)C[C@H]1[C@H]1C(=O)C=C3[C@@]4(C)C=C(C#N)C(=O)C(C)(C)[C@@H]4CC[C@@]3(C)[C@]1(C)CC2 [Bardoxolone methyl]
[3]; 10 μM, day 3 post-treatment
  inhibition at 10 µM: 100%
[4]; 24 h
  inhibition of N. fowleri growth: approximately 85%
[4]; 48 h
  inhibition of N. fowleri growth: 97%
[5]
  CC50: 8.13 µM
[6]
  coronavirus inhibition: inhibitors of both alpha- and beta-coronaviruses

## CCc1ccc(OCc2ccccc2C(=O)Nc2ccc3nc(C)cc(N)c3c2)cc1 [JTC-801]
[1]; HepG2 cells
  CC50: 7.43 µM
[7]
  IC50: 94 nM
[2]
  effect on microcyst viability: did not exert a significant inhibitory effect
[3]; 10 μM, day 3 post-treatment
  inhibition at 10 µM: 100%

## COc1ccc2nc3cc(Cl)ccc3c(Nc3cc(CN4CCCC4)c(O)c(CN4CCCC4)c3)c2n1 [pyronaridine]
[8]
  cyst mortality: 100%

## CC1=C(O)C(=O)C=C2C1=CC=C1[C@@]2(C)CC[C@@]2(C)[C@@H]3C[C@](C)(C(=O)O)CC[C@]3(C)CC[C@]12C [Celastrol]
[9]
  IC50: 2500 nM

## O=C(Nc1ccc([N+](=O)[O-])cc1Cl)c1cc(Cl)ccc1O [Niclosamide]
[10]
  activity against E. multilocularis metacestodes in vitro: active
[2]
  effect on microcyst viability: complete lethality
[11]
  effect on metacestode burden: did not lead to a reduction of the metacestode burden
[12]
  day on which all cysts were killed (complete lethality): 7 days
  metacestodicidal effect on cysts ex vivo: obvious metacestodicidal effect
[12]; low incubation concentration, from day 5, ex vivo
  parasiticidal efficiency: approximately 80%
[3]; 10 μM, day 3 post-treatment
  inhibition at 10 µM: 100%
[13]
  activity against the parasites of both species in all four assays: active
[5]
  CC50: 6.14 µM

## CC(=O)Oc1cc(C)c(OC(C)=O)c2ccccc12 [Vitamin K4]
[1]; HepG2 cells
  CC50: > 100 µM

## O=C(Nc1cccc(C(F)(F)F)c1)c1cc(Cl)ccc1O [MMV665807]
[10]
  activity against E. multilocularis metacestodes in vitro: active
[11]
  effect on metacestode burden: did not lead to a reduction of the metacestode burden
[13]
  activity against the parasites of both species in all four assays: active

## MI-2 [MI-2 (MALT1 inhibitor)]
[14]
  IC50: 5.84 µM

## CC#CC(=O)Nc1ccc2ncnc(Nc3cccc(Br)c3)c2c1 [CL-387785 (EKI-785), CL-387785]
[15]
  IC50: 0.37 nM

## c1ccc(CNc2nc(NCc3ccccc3)c3ccccc3n2)cc1 [DBeQ]
[16]
  IC50: 1500 nM

## COc1ccc2c(c[n+](C)c3c4cc5c(cc4ccc23)OCO5)c1OC [Chelerythrine]
[1]
  CC50: 32.7 µM
[2]
  effect on microcyst viability: did not exert a significant inhibitory effect
[3]; 10 μM, day 3 post-treatment
  inhibition at 10 µM: 100%

## CC(C)(C)C(=O)Nc1ccc2c(c1)C(=O)C(=O)c1ccccc1-2 [SF1670]
[18]
  IC50: 2000 nM

## CCCSc1ccc2nc(NC(=O)OC)[nH]c2c1 [albendazole]
[19]
  patients who did not respond favorably to the medication: about 40%

## CC(=O)OC[C@H]1O[C@@H]([S-])[C@H](OC(C)=O)[C@@H](OC(C)=O)[C@@H]1OC(C)=O.CCP(CC)CC.[Au+] [Auranofin]
[20]
  CC50: 13.4 µM
[2]
  effect on microcyst viability: did not exert a significant inhibitory effect
[3]; 10 μM, day 3 post-treatment
  inhibitory rate against the cysts: 100%

## OC1(c2ccc(Cl)c(C(F)(F)F)c2)CCN(CCCC(c2ccc(F)cc2)c2ccc(F)cc2)CC1 [Penfluridol]
[1]; HepG2 cells
  CC50: 8.63 µM

## CC(C)(C)c1ccc(C(O)CCCN2CCC(C(O)(c3ccccc3)c3ccccc3)CC2)cc1 (centres unmarked) [Terfenadine]
[5]
  CC50: 7.31 µM

## OC(c1cc(C(F)(F)F)nc2c(C(F)(F)F)cccc12)C1CCCCN1 (centres unmarked) [mefloquine]
[10]
  activity against E. multilocularis metacestodes in vitro: active

## Cc1[nH]c2cc(F)cc(F)c2c(=O)c1-c1ccc(Oc2ccc(OC(F)(F)F)cc2)cc1 [MMV671636, ELQ-400]
[21]
  MIC50 against E. multilocularis metacestodes cultured in vitro: 0.02 µM (≈ 0.00895 µg/mL)

## CC(C)(C)[C@H]1CC[C@H](CC2=C(O)C(=O)c3ccccc3C2=O)CC1 [MMV689480, buparvaquone]
[21]
  MIC50 against E. multilocularis metacestodes cultured in vitro: 2.87 µM (≈ 0.937 µg/mL)

## CC(C)(Cc1ccc2ccccc2c1)NC[C@@H](O)COc1cccc(Cl)c1C#N [NPS-2143]
[23]
  CC50: 15.3 µM

## CCC[C@H](NC(=O)/C(C#N)=C/c1cccc(Br)n1)c1ccccc1 [Degrasyn (WP1130), Degrasyn]
[3]; day 3 post-drug treatment, positive control
  cyst morphology after treatment: structural damage of the cyst

## CC1(C)CC[C@]2(NC(=O)C(C)(F)F)CC[C@]3(C)[C@H](C(=O)C=C4[C@@]5(C)C=C(C#N)C(=O)C(C)(C)[C@@H]5CC[C@]43C)[C@@H]2C1 [Omaveloxolone]
[1]; HepG2 cells
  CC50: 9.33 µM
[2]
  effect on microcyst viability: complete lethality
[12]
  day on which all cysts were killed (complete lethality): ≤ 5 days
  metacestodicidal effect on cysts ex vivo: obvious metacestodicidal effect
[12]; 5 μM, by day 2, ex vivo
  reduction in cyst viability: 50%
[3]
  inhibition at 10 µM: 100%
[6]
  coronavirus inhibition: inhibitors of both alpha- and beta-coronaviruses

## COc1ccc(-c2ccc3ncc4c(c3c2)n(-c2ccc(N3CCNCC3)c(C(F)(F)F)c2)c(=O)n4C)cn1 [BGT226 (NVP-BGT226), BGT226]
[24]
  IC50: 4 nM
[25]
  IC50: 38 nM
[26]
  IC50: 63 nM

## Elaiophylin
[27]
  IC50: 450 nM
[28]
  IC50: 360 nM
